Assay results: US20220387370A1, “METHODS OF REDUCING NEUROLOGICAL DAMAGE IN WILSON DISEASE PATIENTS” (priority 2019, published 2022)
“Also recorded” adds a separate entry of the source.

How the values were obtained:
[1] = system: PBCEC monolayers; assay: TEER and capacitance of PBCEC monolayers (endothelial blood-brain barrier model); assay type: cell-based, porcine
Source text: (§1) For transepithelial resistance (TEER) experiments (Srinivasan, B., et al., J Lab Autom, 2015. 20(2): p. 107-26), cryopreserved primary porcine brain capillary endothelial cells (PBCECs) were thawed and seeded either on rat tail collagen-coated 96-well plates for cytotoxicity testing using the Neutral red assay (Repetto, G., A. del Peso, and J. L. Zurita, Nat Protoc, 2008. 3(7): p. 1125-31) or Transwell® inserts (area: 1.12 cm^2, pore size: 0.4 μm: Corning, N.Y., USA) for barrier integrity studies. Cells were cultured for 48 hours in Earle's Medium 199 supplemented with 10% FCS, 50 U penicillin/mL, 50 μg/mL streptomycin, 100 μg/mL gentamycin and 0.7 mM I-glutamine and maintained at 37° C. in a humidified atmosphere with 5% CO2. […] TEER and capacitance values were continuously monitored over 48 h using a CellZscope device (nanoAnalytics, Münster, Germany). Only PBCEC monolayers with initial TEER values >600Ωcm^2 and capacitance values between 0.45 and 0.6 μF/cm^2 were used for permeability studies (Bornhorst, J., et al., J Biol Chem, 2012. 287(21): p. 17140-51). The barrier integrity was calculated by normalizing the TEER values to the respective start values.

[2] = system: HepG2, EA.hy926, U87MG and SHSY5Y cells; assay: Cu-albumin cell toxicity, CellTiter-Glo, all investigated cell lines; assay type: cell-based, human; conditions: 750 μM chelator, 250 μM albumin, copper 250 to 2500 μM, 24 h
Experimental: SHSY5Y (human neuroblastoma), U87MG (human astrocytoma), EA.hy926 (human endothelium) and HepG2 (human hepatocellular carcinoma) cells were from ATCC (Wesel, Germany) and were cultured in Dulbecco's Modified Eagle Medium (DMEM) supplemented with 10% FCS (Biochrom, Berlin, Germany) and 1% antibiotic-antimycotic (Life Technologies, Carlsbad, USA). All cells were maintained at 37° C. in a humidified atmosphere with 5% CO2.

[3] = system: EA.hy926 cells; assay: High-resolution respirometry, EA.hy926; assay type: cell-based, human; conditions: EA.hy926, Cu-albumin-treated, vs Cu-albumin alone
Experimental: Oxygen consumption was assessed by high-resolution respirometry (HRR) using the Oxygraph-2k and DatLab 7.0 (Oroboros Instruments GmbH, Innsbruck, Austria) as described previously (Pesta, D. and E. Gnaiger, Methods Mol Biol, 2012. 810: p. 25-58). Per chamber, 1.5-2×10^6 living cells were supplied in 2 mL of MiR05 buffer (0.5 mM EGTA, 3 mM MgCl2, 60 mM lactobionic acid, 20 mM taurine, 10 mM KH2PO4, 20 mM HEPES, 110 mM sucrose, 1 g/L albumin, pH 7.1) and routine respiration was measured. Addition of 2.5 μM oligomycin (inhibitor of the FOF1-ATPase) enabled the measurement of leak respiration and stepwise addition of CCCP (1 μL steps from 1 mM stock solution) allowed the determination of the maximum oxygen flux and thereby the capacity of the electron transport system (ETS). The oxygen flux was baseline-corrected for non-mitochondrial oxygen consuming processes (ROX) by the addition of 2.5 μM of the complex III-inhibitor antimycin A.

[4] = system: SHSY5Y cells; assay: Cellular copper content (ICP-OES), SHSY5Y; assay type: cell-based, human; conditions: 750 μM copper, 250 μM albumin, 750 μM chelator, vs Cu-albumin alone
Source text: (§2) Afterwards, cells were trypsinized and counted.

[5] = system: tight junction protein claudin-5; assay: Immunocytochemistry staining of claudin-5 in PBCEC monolayers; assay type: cell-based, porcine; conditions: 250 μM copper and 83.3 μM albumin, 250 μM chelator
Experimental: Total copper was determined by ICP-MS/MS as previously described (Kopp, J. F., et al., J Trace Elem Med Biol, 2019. 54: p. 221-225). For the immunocytochemical staining of tight junction proteins, confluent PBCECs cultivated on Transwell® membrane inserts were processed as previously described ([…]., et al., Archives of Toxicology 2018. 92(2): p. 823-832). Briefly, PBCECs were fixed with formaldehyde and permeabilized using Triton X-100. After blocking of unspecific binding sites by albumin, the cells were incubated with the either anti-claudin 5 or anti-ZO-1 antibody (Zytomed Systems GmbH, Berlin, Germany). Following a second blocking step, the cells were treated with an Alexa Fluor® 488 conjugated secondary antibody (Invitrogen, Molecular Probes Inc., Eugene, USA). Hoechst 33258 (Merck, Darmstadt, Germany) was used to stain cell nuclei. Subsequently, membranes were cut out of the inserts and mounted in Aqua Poly/Mount (Polysciences Inc., Washington, USA). After a solidification period of 24 hours, the samples were evaluated using a DM6 B fluorescence microscope by Leica Microsystems CMS GmbH (Wetzlar, Germany) in combination with the Leica Application Suite X.

[6] = biological target: Cu-albumin complex (bovine serum albumin) (Bos taurus, UniProt P02769); conditions: 750 μM copper, 250 μM albumin, molar ratio Cu-albumin-chelator 3:1:3
Experimental: 10 mg of fatty acid free bovine serum albumin (subsequently referred to as albumin, Carl Roth, Karlsruhe, Germany) were resuspended in 10 mM Tris-HCl buffer (pH 7.4) and mixed with 45 μL of 10 mM copper chloride. […] Briefly, 50 μL of each fraction were mixed with 10 μL 0.2% NQS, 10 μL of 0.2 M sodium phosphate buffer (pH 12.0) and 30 μL ddH2O in a clear 96-well plate. The samples were incubated for 20 min and absorbance was measured at 452 nm.

[7] = system: HepG2 cells; assay: Trypan blue-assessed cell viability under Cu-albumin, HepG2; assay type: cell-based, human; conditions: 750 μM copper, 250 μM albumin, 750 μM chelator
Source text: as §2

[8] = system: PBCEC monolayers; assay: Copper in the basolateral compartment of the Transwell PBCEC model (ICP-MS/MS); assay type: cell-based, porcine; conditions: 250 μM copper and 83.3 μM albumin, 250 μM chelator, after 48 h
Source text: as §1

[9] = system: HepG2, EA.hy926, U87MG and SHSY5Y cells; conditions: 750 μM copper, 250 μM albumin, 750 μM chelator
Experimental: 2×10^4 cells were seeded into each well of a 96-well plate and incubated overnight. […] Cell toxicity was either determined by CellTiter-Glo® assay (Promega, Madison, USA) or Trypan blue exclusion test.
Afterwards, cells were trypsinized and counted. Cell viability was determined by Trypan blue exclusion test.

[10] = system: primary porcine brain capillary endothelial cells (PBCECs); conditions: 750 μM copper and 250 μM albumin, 750 μM ALXN1840, 48 h
Source text: as §1

Sequence of Cu-albumin complex (bovine serum albumin) (P02769 25-607, one chain of several): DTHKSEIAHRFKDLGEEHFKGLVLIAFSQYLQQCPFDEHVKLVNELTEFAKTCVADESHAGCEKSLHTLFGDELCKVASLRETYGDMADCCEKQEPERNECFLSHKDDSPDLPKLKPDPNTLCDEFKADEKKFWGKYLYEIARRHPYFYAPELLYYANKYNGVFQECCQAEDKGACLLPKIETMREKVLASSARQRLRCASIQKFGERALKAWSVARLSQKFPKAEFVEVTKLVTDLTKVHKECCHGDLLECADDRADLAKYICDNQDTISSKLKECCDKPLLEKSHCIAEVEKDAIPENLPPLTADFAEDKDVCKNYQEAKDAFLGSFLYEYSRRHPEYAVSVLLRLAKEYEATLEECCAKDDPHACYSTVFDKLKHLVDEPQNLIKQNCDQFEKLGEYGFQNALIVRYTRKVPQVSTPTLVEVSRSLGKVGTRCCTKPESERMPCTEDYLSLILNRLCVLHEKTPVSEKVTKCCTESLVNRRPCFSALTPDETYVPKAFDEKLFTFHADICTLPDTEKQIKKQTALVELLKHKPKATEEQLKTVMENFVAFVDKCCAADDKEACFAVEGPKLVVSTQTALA

C[N+](C)(C)CCO.C[N+](C)(C)CCO.[SH-].[SH-].[S]=[Mo]=[S] [ALXN1840, bis-choline tetrathiomolybdate]
transepithelial electrical resistance (TEER) ([1]; 250 μM copper and 83.3 μM albumin, 250 μM chelator, 48 h): stable TEER values for 48 h; also recorded: could be rescued | capacitance values ([1]; Cu-albumin treatment in the absence or presence of chelator): unaffected | CellTiterGlo-assessed cell viability / Cu-albumin toxicity [2]: fully avoided such toxicity up to a Cu-albumin ratio of 4:1 | mitochondrial respiration (ETS) [3]: significantly increased | respiratory control ratio E/L (ETS to leak respiration) [3]: significantly increased | cellular copper content [4]: this effect was not present | claudin-5 staining pattern / copper-induced gap formation [5]: continuous and uninterrupted; also recorded: less pronounced | distribution of copper, albumin and chelator over gel filtration fractions [6]: one prominent gel filtration peak appeared; also recorded: albumin, molybdenum and copper were present in the same fractions | Trypan blue-assessed cell viability / copper-related cell toxicity [7]: rescued HepG2 cells | copper in the basolateral compartment (copper influx) [8]: fully avoided; also recorded: significantly lower amount of copper | Trypan blue-assessed cell viability / copper-related cell toxicity [9]: cellular viability was significantly maintained; also recorded: protected all cell lines | cell viability (neutral red) [10]: could be rescued
